Source: article PMC11181328 (Journal of Medicinal Chemistry, 2024)
Like-named read-outs stand apart in the source and are kept apart here.

Key:
[1] = system: male and female Sprague–Dawley rats; conditions: intravenous, FR5 schedule of reinforcement, 2 h sessions
[2] = molecular target: T1, MOR (Mus musculus, UniProt P42866); assay: [35S]-GTPγS functional assay, MOR; format: biochemical; design: expressed in transfected cells; membrane homogenate; conditions: for EC50: mMOR-CHO membranes; for [35S]-GTPγS functional activity MOR Emax (%): percent of DAMGO full agonist control; for Emax: read-out: [35S]-GTPγS functional activity MOR Emax (%)
[3] = system: male Swiss Webster mice; assay: Warm-water tail immersion assay, time course study; format: in vivo, mouse; conditions: for onset of antinociceptive effects: s.c.
[4] = in vitro; conditions: human, s9
[5] = molecular target: T1, MOR; assay: Competitive radioligand binding assay, MOR; design: expressed in transfected cells; membrane homogenate; conditions: for radioligand binding affinity (Ki, nM) MOR: [3H]naloxone, mMOR-CHO membranes
[6] = molecular target: T2, DOR (Homo sapiens, UniProt P41143); assay: [35S]-GTPγS functional assay, DOR; format: biochemical; conditions: for EC50: hDOR-CHO membranes; for Emax: percent of SNC80 full agonist control
T2 construct: expressed in transfected cells; membrane homogenate

[7] = system: male Swiss Webster mice; assay: Warm-water tail immersion assay, receptor selectivity study; format: in vivo, mouse; conditions: for antagonism of antinociceptive effects by nor-BNI (KOR antagonist) pretreatment: 10 mg/kg nor-BNI s.c. 24 h prior to 0.1 mg/kg test compound s.c. (23 also 0.05 mg/kg); for antagonism of antinociceptive effects by β-FNA (MOR antagonist) pretreatment: 10 mg/kg β-FNA s.c. 24 h prior to 0.1 mg/kg test compound s.c.; for antagonism of antinociceptive effects by NTI (DOR antagonist) pretreatment: 15 mg/kg NTI s.c. 30 min prior to 0.1 mg/kg test compound s.c. (23 also 0.05 mg/kg); for antagonism of antinociceptive effects by NTI and nor-BNI pretreatment together: nor-BNI 10 mg/kg + NTI 15 mg/kg s.c. prior to test compound
[8] = Drug distribution study (brain and plasma, LC-MS/MS); format: in vivo, mouse; conditions: 0.1 mg/kg s.c.; for Kp at 5 min / Kp at 10 min / Kp at 0.5 h / Kp at 1 h: Swiss Webster, mouse, sc, read-out: B/P (brain-to-plasma concentration ratio); for Kp at 0.5 h: 30 min; for Kp at 1 h: 60 min
Experimental: To examine the potential for these compounds to exert their effects on the central nervous system, a drug distribution study monitoring blood–brain barrier penetration was used. […] Plasma and brain homogenate were then analyzed via liquid chromatography with tandem mass spectrometry (LC-MS/MS) to allow calculation of brain-to-plasma ratios.[78]
The test compound was administered s.c., and a group of Swiss Webster mice was euthanized by decapitation at each time point (5, 10, 30, 60 min post injection) allowing whole brain and blood samples to be harvested. Brain samples were washed with saline to ensure removal of any blood on the isolated brain and were then immersed in 300 μL saline. Blood samples were centrifuged for 10 min (15,000g; 4 °C) to collect plasma. Brain and plasma samples were stored at −80 °C until further analysis.
Identification and quantification of test compound in mouse brain and plasma were performed using a modification of a previously described method with an internal standard of naloxone-d5.[126] Compounds were extracted from both blood and brain by a liquid/liquid extraction. Briefly, brain tissue samples were homogenized 1-part tissue to 3-parts water. Seven-point calibration curves (10–1000 ng/mL or ng/g) in plasma, drug free control, a negative control without internal standard in plasma and brain, and quality control specimens in plasma and brain (30, 300, and 750 ng/mL or ng/g) were prepared and analyzed with each batch of samples. […], was added at 10 ng/mL concentration to aliquots of either 100 μL for blood or 400 μL for brain homogenate to each calibrator, control, or specimen except the negative control. To these samples, 0.5 mL of saturated carbonate/bicarbonate buffer (1:1, pH 9.5) and 2.0 mL of chloroform/2-propanol (8:2) were added. The samples were then mixed and centrifuged. The top, aqueous layer was aspirated, and the organic layer was transferred to a clean test tube and evaporated to dryness under nitrogen. The samples were then reconstituted in 80:[…] and transferred to autosampler vials for analysis. The chromatographic separation of test compounds and naloxone-d5 was accomplished using a Shimadzu Nexera X2 liquid chromatography system and a Zorbax XDB-C18 4.6 × 75 mm, 3.5 μm column (Agilent Technologies, Santa Clara, CA). The mobile phases consisted of (A) water with 1 g/L ammonium formate and 0.1% formic acid, and (B) methanol. The flow rate was set to 1 mL/min. The mobile phase started with 20% B and was increased to 80% B at 1.0 min and held constant for 1.5 min before returning to 20% B. The system detector was a Sciex 6500 QTRAP system with an IonDrive Turbo V source for TurboIonSpray (Sciex, Ontario, Canada) that had the curtain gas flow rate set at 30 mL/min and the ion source gases 1 and 2 at 60 mL/min. The source temperature was set at 650 °C with an ionspray voltage was 5500 V. The declustering potential was 58 eV.
The primary dependent measures are (1) the plasma concentration of the test compound (μg/mL), (2) the brain concentration of the test compound (μg/g), and (3) the brain-to-plasma concentration ratio calculated as [brain]/[plasma]. Concentrations were determined by a linear regression plot based on peak ratios of the calibrators. Data are shown as mean ± SEM. Data were compared using one-way ANOVA as appropriate and a significant ANOVA was followed by a Dunnet’s post hoc test as appropriate. Statistical significance was defined as p < 0.05.

[9] = in vitro; conditions: Sprague-Dawley, rat, s9
[10] = system: male Swiss Webster mice; assay: Warm-water tail immersion assay, agonism (single dose screen and potency); format: in vivo, mouse; conditions: for ED50: Mus musculus, sc, read-out: potency ED50 [95% CI] mg/kg, 20 min prior to tail withdrawal latency measurement, male Swiss Webster mice; for ED50 / ED75: s.c.; for ED75: warm-water tail immersion; for percent MPE: single dose 10 mg/kg s.c., withdrawal latency 20 min after administration
[11] = molecular target: T2, DOR; assay: Competitive radioligand binding assay, DOR
[12] = molecular target: T3, KOR (Mus musculus, UniProt P33534); assay: Competitive radioligand binding assay, KOR; conditions: for radioligand binding affinity (Ki, nM) KOR: [3H]diprenorphine, mKOR-CHO membranes; for selectivity ratio δ/κ / selectivity ratio μ/κ: ratio of Ki values
T3 construct: expressed in transfected cells; membrane homogenate

[13] = molecular target: T3, KOR; assay: [35S]-GTPγS functional assay, KOR; format: biochemical; conditions: for EC50: mKOR-CHO membranes; for Emax: percent of U50,488 full agonist control
[14] = warm water tail immersion studies (Figure 3)

Structure (SMILES) | reinforcing effect (number of infusions earned versus saline) [1] | EC50 [2] [nM] | [35S]-GTPγS functional activity MOR Emax (%) [2] | Emax [2] [%] | antinociceptive effects significant until (time postinjection) ([3]; 0.1 mg/kg s.c.) [h] | onset of antinociceptive effects [3] | duration of action [3, 14] [h] | half-life [4] [min] | microsomal CLint [4] [µL/min/mg] | Ki [5] [nM] | radioligand binding affinity (Ki, nM) MOR [5] | EC50 [6] [nM] | Emax [6] [%] | antagonism of antinociceptive effects by nor-BNI (KOR antagonist) pretreatment [7] | antagonism of antinociceptive effects by β-FNA (MOR antagonist) pretreatment [7] | antagonism of antinociceptive effects by NTI (DOR antagonist) pretreatment [7] | antagonism of antinociceptive effects by NTI and nor-BNI pretreatment together [7] | time point of highest plasma concentration [8] [min] | ED50 [10] [mg/kg] | ED75 [10] [mg/kg] | further results
CN(C(=O)/C=C/c1ccco1)[C@H]1CC[C@@]2(O)[C@H]3Cc4ccc(O)c5c4[C@@]2(CCN3CC2CC2)[C@H]1O5.Cl [Compound 21, 17-Cyclopropylmethyl-3,14β-dihydroxy-4,5α-epoxy-6α-[(2E)-3′-(furan-2″-yl)-N-methylprop-2-enamido]morphinan Hydrochloride] | no dose maintained a significant number of infusions earned above saline | 0.58 ± 0.17 | low efficacy MOR partial agonism | 19.7 ± 0.7 | 3 | approximately 30 min | > 3 | > 120 | < 5.8 | 0.2 ± 0.02 | subnanomolar | 1.28 ± 0.28 | > 80 | antagonized | not antagonized by β-FNA | antagonized | seemed to compound the decrease | 5 | 0.051 | 0.1 | duration of action ([3]; 0.1 mg/kg s.c.): 3 h; Kp at 5 min ([8]; brain and plasma): 0.027; Kp at 10 min ([8]; brain and plasma): 0.186; Kp at 0.5 h ([8]; brain and plasma): 0.633; Kp at 1 h ([8]; brain and plasma): 0.938; half-life at 1 h, 1 µM [9]: 69.7 min; microsomal CLint at 1 h, 1 µM [9]: 10.1 µL/min/mg; percent MPE [10]: ≥ 80%; Ki [11]: 0.93 ± 0.21 nM; radioligand binding affinity (Ki, nM) DOR ([11]; [3H]diprenorphine, hDOR-CHO membranes): subnanomolar; Ki [12]: 0.14 ± 0.02 nM; radioligand binding affinity (Ki, nM) KOR [12]: subnanomolar; selectivity ratio δ/κ [12]: 7; selectivity ratio μ/κ [12]: 1; Selectivity Ratio MOR/KOR ([12]; supplement csv): 1.43; EC50 [13]: 0.04 nM; Emax [13]: 107 ± 2.6%
CN(C(=O)/C=C/c1ccco1)[C@@H]1CC[C@@]2(O)[C@H]3Cc4ccc(O)c5c4[C@@]2(CCN3CC2CC2)[C@H]1O5.Cl [Compound 23, 17-Cyclopropylmethyl-3,14β-dihydroxy-4,5α-epoxy-6β-[(2E)-3′-(furan-2″-yl)-N-methylprop-2-enamido]morphinan Hydrochloride] | no dose maintained a significant number of infusions earned above saline | 5.31 ± 0.53 | low efficacy MOR partial agonism | 14.2 ± 1.77 | 6 | approximately 30 min | > 3 | > 120 | < 5.8 | 0.78 ± 0.05 | subnanomolar | 16.4 ± 3.25 | > 80 | slight, nonsignificant decrease | not antagonized by β-FNA | antagonized by NTI | enhanced antagonism | 5 | 0.01 | 0.05 | antinociceptive effects significant until (time postinjection) ([3]; 0.05 mg/kg s.c.): 3 h; duration of action ([3]; 0.5 mg/kg s.c.): 3 h; Kp at 5 min ([8]; brain): 0.05; Kp at 10 min ([8]; brain): 0.762; Kp at 0.5 h ([8]; brain): 0.645; Kp at 1 h ([8]; brain): 1.45; half-life [9]: > 120 min; microsomal CLint [9]: < 5.8 µL/min/mg; percent MPE [10]: ≥ 80%; Ki [11]: 7.93 ± 1.02 nM; Ki [12]: 0.22 ± 0.03 nM; radioligand binding affinity (Ki, nM) KOR [12]: subnanomolar; selectivity ratio δ/κ [12]: 36; selectivity ratio μ/κ [12]: 4; EC50 [13]: 0.14 ± 0.02 nM; Emax [13]: 106.5 ± 0.7%
